Structures can show the parent of a compound that is named as a salt.
How the values were obtained:
[1] = system: sonic hedgehog pathway; experiment: Hedgehog reporter assay (gli-luciferase) in TM3 cells; type: cell-based, mouse; details: TM3 mouse Leydig cells, gli-luciferase reporter; read-out: TM3 Avg. EC50
How it was run: (§1)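 Stable gli-luciferase reporter lines (mouse TM3; human Daoy and HEPM) switched to 0.5% FBS medium, given compounds at 1-5 μM with or without octyl-modified hedgehog protein (1-5 ng/ml) for 24 hrs. Luminescence read; eleven-point 1:3 dose curves, activation expressed as percentage of plate controls (AMAX).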

[2] = system: sonic hedgehog pathway; experiment: Hedgehog reporter assay (gli-luciferase) in S12 cells; type: cell-based; details: S12 mouse embryonic mesenchymal cells
Description: (§2) Mouse (TM3: mouse Leydig cells; S12: mouse embryonic mesenchymal cells) and human (Daoy: human medulloblastoma cell; HepM: human embryonic palatal mesenchymal cell) cell lines are used to screen small molecules for their ability to modulate the activity of the sonic hedgehog pathway (Table 1, Table 2, and Table 3). Stable hedgehog pathway reporter cell lines are established by specific antibiotic selection following transfection of a reporter plasmid containing a luciferase gene located directly downstream from the gli promoter. Consequently, any observable changes in cellular luciferase activity may be attributed to changes in sonic hedgehog pathway activity in mouse and human cells, respectively, since gli is the major by-product of this pathway. To calculate activity, we generate an eleven point dose curve for each compound using 1:3 dilutions in 96 well assay plates. Each plate tested also contains low and high control to establish maximal pathway activation so to establish/compare a percentage activation of each tested compound (AMAX) on respective plates. Also we calculate EC50 values, or a concentration where the pathway will be exactly 50% activated, for each tested compound to determine potency. In these cell lines, compounds that register >20% AMAX values are considered active.
(§3) Stable hedgehog pathway reporter cell lines are established following specific antibiotic selection following transfection of a reporter plasmid
(§4) In short, typically cells are plated in MicroTiter-plates at 10,000-20,000 cells per well, in growth media (containing 10%-20% FBS). After 48-72 hrs (HGL and DGL respectively) the media in the assay plates is switched to low-serum containing media (0.5% FBS). At that time compounds are added (at 1-5 μM) to the assay plates, in the presence or absence of hedgehog protein (octyl-modified version; 1-5 ng/ml). After another 24 hrs of incubation, the media from the assay plates is discarded and replaced with luciferase assay-mix. Subsequently, plates are incubated at RT for ˜15-30 mins and then read in a luminometer. [note: addition of the Hedgehog protein, although not critical, will sensitize the assay allowing the identification of weak actives].

[3] = system: sonic hedgehog pathway; experiment: Human hedgehog reporter assay HEPM-GliLuc (HGL); type: cell-based; details: HepM human embryonic palatal mesenchymal cells, gli-luciferase reporter; read-out: HEPM Avg. EC50
Description: as §2, with “plates.” for “plates. Also we calculate EC50 values, or a concentration where the pathway will be exactly 50% activated, for each tested compound to determine potency. In these cell lines, compounds that register >20% AMAX values are considered active.”
as §3, §4

[4] = system: sonic hedgehog pathway; experiment: Human hedgehog reporter assay Daoy-GliLuc (DGL); type: cell-based
How it was run: as §1

[5] = Daoy human medulloblastoma cells, gli-luciferase reporter, read-out: Daoy Avg. EC50
[6] = Daoy human medulloblastoma cells, gli-luciferase reporter, read-out: Human Daoy (Gli-Luc) Avg. EC50
[7] = Homo sapiens, Daoy, read-out: Human Daoy (Gli-Luc) Avg. EC50 (nM)

Row | Compound | EC50 [1] [nM] | EC50 ([2]; read-out: S12 Avg. EC50) [nM] | EC50 [3] [nM] | EC50 [4, 5] [nM] | EC50 ([2]; read-out: Mouse S12 Avg. EC50) [nM] | EC50 [4, 6] [nM] | EC50 [4, 7] [nM]
1 | CNC1CCC(N(Cc2cc(-c3cccnc3)ccc2OC)C(=O)c2sc3cccc(F)c3c2Cl)CC1 (centres unmarked) [360 (R16), 3-Chloro-4-fluoro-benzo[b]thiophene-2-carboxylic acid (2-methoxy-5-pyridin-3-yl-benzyl)-(4-methylamino-cyclohexyl)-amide dihydrochloride] | < 50 | < 50 | < 50 | < 50 |  |  | 
2 | CNC1CCC(N(Cc2cc(-c3ccc(C(N)=O)cc3)ccc2OC)C(=O)c2sc3ccccc3c2Cl)CC1 (centres unmarked) [Compound 316, 3-Chloro-benzo[b]thiophene-2-carboxylic acid (4′-carbamoyl-4-methoxy-biphenyl-3-ylmethyl)-(4-methylamino-cyclohexyl)-amide hydrochloride] | < 50 | < 50 | < 50 |  |  |  | 
3 | CNC1CCC(N(Cc2cc(-c3ccc(C(=O)N(C)C)cc3)ccc2OC)C(=O)c2sc3ccccc3c2Cl)CC1 (centres unmarked) [Compound 317 (R19), 3-Chloro-benzo[b]thiophene-2-carboxylic acid (4′-dimethylcarbamoyl-4-methoxy-biphenyl-3-ylmethyl)-(4-methylamino-cyclohexyl)-amide hydrochloride] | < 50 | < 50 | < 50 |  |  |  | 
4 | CNC1CCC(N(Cc2cc(-c3ccc(N)nc3)ccc2OC)C(=O)c2sc3ccccc3c2Cl)CC1 (centres unmarked) [Compound 319, 3-Chloro-benzo[b]thiophene-2-carboxylic acid [5-(6-aminopyridin-3-yl)-2-methoxy-benzyl]-(4-methylamino-cyclohexyl)-amide dihydrochloride] | < 50 | < 50 | < 50 |  |  |  | 
5 | CNC1CCC(N(Cc2cc(-c3ccc(CO)cc3)ccc2OC)C(=O)c2sc3ccccc3c2Cl)CC1 (centres unmarked) [Compound 329, 3-Chloro-benzo[b]thiophene-2-carboxylic acid (4′-hydroxymethyl-4-methoxy-biphenyl-3-ylmethyl)-(4-methylamino-cyclohexyl)-amide hydrochloride] | < 50 | < 50 | < 50 |  |  |  | 
6 | CN[C@H]1CC[C@@H](N(Cc2cc(-c3ccnc(C)c3)ccc2OC)C(=O)C2=C(Cl)c3c(C)ccc(F)c3C2)CC1 [Compound 355] | < 50 | < 50 | < 50 |  |  |  | 
7 | CNC1CCC(N(Cc2cc(-c3ccncc3)ccc2O)C(=O)c2sc3c(F)ccc(F)c3c2Cl)CC1 (centres unmarked) [Compound 368, 3-Chloro-4,7-difluoro-benzo[b]thiophene-2-carboxylic acid (2-hydroxy-5-pyridin-4-yl-benzyl)-(4-methylamino-cyclohexyl)-amide dihydrochloride] |  | < 50 | < 50 | < 50 |  |  | 
8 | CNC1CCC(N(Cc2cc(-c3ccc(S(N)(=O)=O)cc3)ccc2OC)C(=O)c2sc3c(F)ccc(F)c3c2Cl)CC1 (centres unmarked) [Compound 388, 3-Chloro-4,7-difluoro-benzo[b]thiophene-2-carboxylic acid(4-methoxy-4′-sulfamoyl-biphenyl-3-ylmethyl)-(4-methylamino-cyclohexyl)-amide hydrochloride] |  |  |  |  | < 50 | < 50 | 
9 | CCS(=O)(=O)c1ccc(-c2ccc(OC)c(CN(C(=O)c3sc4c(F)ccc(F)c4c3Cl)C3CCC(NC)CC3)c2)cc1 (centres unmarked) [Compound 389, 3-Chloro-4,7-difluoro-benzo[b]thiophene-2-carboxylic acid (4′-ethanesulfonyl-4-methoxy-biphenyl-3-ylmethyl)-(4-methylamino-cyclohexyl)-amide hydrochloride] |  |  |  |  | < 50 |  | < 50
10 | COc1ccc(-c2ccc(S(C)(=O)=O)cc2)cc1CN(C(=O)c1sc2c(F)ccc(F)c2c1Cl)C1CCC(N)CC1 (centres unmarked) [Compound 390, 3-Chloro-4,7-difluoro-benzo[b]thiophene-2-carboxylic acid (4-amino-cyclohexyl)-(4′-methanesulfonyl-4-methoxy-biphenyl-3-ylmethyl)-amide hydrochloride] |  |  |  |  | < 50 |  | < 50
11 | CNC1CCC(N(Cc2cc(-c3ccc(S(=O)(=O)N(C)C)cc3)ccc2OC)C(=O)c2sc3c(F)ccc(F)c3c2Cl)CC1 (centres unmarked) [Compound 391, 3-Chloro-4,7-difluoro-benzo[b]thiophene-2-carboxylic acid (4′-dimethylsulfamoyl-4-methoxy-biphenyl-3-ylmethyl)-(4-methylamino-cyclohexyl)-amide trifluoroacetate] |  |  |  |  | < 50 |  | < 50
12 | CNC1CCC(N(Cc2cc(-c3ccncc3)ccc2C)C(=O)c2sc3c(F)ccc(F)c3c2Cl)CC1 (centres unmarked) [Compound 392, 3-Chloro-4,7-difluoro-benzo[b]thiophene-2-carboxylic acid (4-methylamino-cyclohexyl)-(2-methyl-5-pyridin-4-yl-benzyl)-amide bis(trifluoroacetate)] |  |  |  |  | < 50 | < 50 | 
13 | C=Cc1ccc(-c2ccc(OC)c(CN(C(=O)c3sc4c(F)ccc(F)c4c3Cl)[C@H]3CC[C@H](N)CC3)c2)cc1 [Compound 393, N-((1r,4r)-4-aminocyclohexyl)-3-chloro-4,7-difluoro-N-((4-methoxy-4′-vinylbiphenyl-3-yl)methyl)benzo[b]thiophene-2-carboxamide] |  |  |  |  | 50 to 250 | 50 to 250 | 
14 | CN[C@H]1CC[C@@H](N(Cc2cc(OC)cc(-c3ccncc3)c2)C(=O)C2=C(Cl)c3c(F)ccc(F)c3C2)CC1 [Compound 394, 3-Chloro-4,7-difluoro-benzo[b]thiophene-2-carboxylic acid(3-methoxy-5-pyridin-4-yl-benzyl)-(4-methylamino-cyclohexyl)-amide bis(trifluoroacetate)] |  |  |  |  | < 50 | < 50 | 
15 | CCc1ccc(-c2ccncc2)cc1CN(C(=O)C1=C(Cl)c2c(F)ccc(F)c2C1)[C@H]1CC[C@@H](NC)CC1 [Compound 395, 3-Chloro-4,7-difluoro-benzo[b]thiophene-2-carboxylic acid(2-ethyl-5-pyridin-4-yl-benzyl)-(4-methylamino-cyclohexyl)-amide dihydrochloride] |  |  |  |  | 50 to 250 | 50 to 250 | 
16 | CNC1CCC(N(Cc2cc(-c3ccccc3SC)ccc2OC)C(=O)c2sc3c(F)ccc(F)c3c2Cl)CC1 (centres unmarked) [Compound 408, 3-Chloro-4,7-difluoro-benzo[b]thiophene-2-carboxylic acid (4-methoxy-2′-methylsulfanyl-biphenyl-3-ylmethyl)-(4-methylamino-cyclohexyl)-amide hydrochloride] |  | 250 to 1000 |  | 250 to 1000 |  |  | 
17 | COc1ccc(-c2cccnc2)cc1CN(C(=O)c1sc2cccc(F)c2c1Cl)[C@H]1CC[C@H](N)CC1 [Compound 410, 3-Chloro-4-fluoro-benzo[b]thiophene-2-carboxylic acid(4-amino-cyclohexyl)-(2-methoxy-5-pyridin-3-yl-benzyl)-amide] |  | < 50 |  | < 50 |  |  | 
18 | COc1ccc(-c2cncc(F)c2)cc1CN(C(=O)c1sc2c(F)ccc(F)c2c1Cl)[C@H]1CC[C@H](N)CC1 [Compound 416] |  | < 50 |  | 50 to 250 |  |  | 
19 | CNC1CCC(N(Cc2cc(-c3ccc(NS(C)(=O)=O)nc3)ccc2OC)C(=O)c2sc3c(F)ccc(F)c3c2Cl)CC1 (centres unmarked) [Compound R10, 3-Chloro-4,7-difluoro-benzo[b]thiophene-2-carboxylic acid[5-(6-methanesulfonylamino-pyridin-3-yl)-2-methoxy-benzyl]-(4-methylamino-cyclohexyl)-amide dihydrochloride] | < 50 | < 50 | < 50 |  |  |  | 

From patent publication US20120245184A1 (Aderans Research Institute, Inc., priority 2006, published 2012)
